Data published in patent US9776979B2, “EBI2 modulators” (Sanford-Burnham Medical Research Institute, priority 2013, dated 2017).

What follows are compounds tested against EBI2 (Homo sapiens, UniProt P32249) (assay: Cell-based luminescent assay (EBI2 modulation)). Conditions: cell-based luminescence; 7a,25-OHC final assay concentration 80 nM; 60 minutes incubation; read-out: IC50.
In short: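 Cells plated overnight at 37° C, then exposed to compound at 4-5 uM final with 80 nM 7a,25-OHC agonist for 60 min at 37° C. Luminescence read after 60 min detection at 25° C in the dark; values normalized to neutral and stimulator controls and plate-pattern corrected.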

Chain of EBI2 (P32249 whole entry): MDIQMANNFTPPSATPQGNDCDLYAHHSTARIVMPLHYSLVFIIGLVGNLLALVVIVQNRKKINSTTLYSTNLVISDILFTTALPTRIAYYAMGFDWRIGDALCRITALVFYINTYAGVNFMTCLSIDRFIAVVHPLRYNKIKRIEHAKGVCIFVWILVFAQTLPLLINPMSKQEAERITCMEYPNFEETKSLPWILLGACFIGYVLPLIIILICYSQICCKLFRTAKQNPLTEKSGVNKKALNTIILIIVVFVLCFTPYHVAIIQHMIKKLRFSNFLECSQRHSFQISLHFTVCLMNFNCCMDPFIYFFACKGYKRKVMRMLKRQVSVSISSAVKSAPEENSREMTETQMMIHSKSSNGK

Compound | IC50
O=C(C#Cc1cccc(Cl)c1)N1CCN(C(=O)c2ccc(Cl)cc2)CC1 [Compound C34, 3-(3-chlorophenyl)-1-{4-[(4-chlorophenyl)carbonyl]piperazinyl}prop-2-yn-1-one] | < 0.1 µM
COC(=O)c1ccc(CN2CCN(C(=O)c3cc4cc(Cl)ccc4[nH]3)CC2)cc1 [Compound C324, methyl 4-({4-[(5-chloroindol-2-yl)carbonyl]piperazinyl}methyl)benzoate] | < 0.1 µM
3-(4-bromophenyl)-1-{4-[(4-chlorophenyl)carbonyl]piperazinyl}prop-2-yn-1-one [Compound C55] | < 0.1 µM
O=C(C#Cc1ccc(Cl)cc1)N1CCN(C(=O)c2ccc(Cl)cc2)CC1 [Compound C16, 3-(4-chlorophenyl)-1-{4-[(4-chlorophenyl)carbonyl]piperazinyl}prop-2-yn-1-one] | < 0.1 µM
O=C(C#Cc1cccc(Cl)c1Cl)N1CCN(Cc2ccc(F)cc2C(F)(F)F)CC1 [Compound C141, 3-(2,3-dichlorophenyl)-1-(4-{[4-fluoro-2-(trifluoromethyl)phenyl]methyl}piperazinyl)prop-2-yn-1-one] | < 0.1 µM
5-chloroindol-2-yl 4-[(4-(3-pyridyl)phenyl)carbonyl]piperazinyl ketone [Compound C254] | < 0.1 µM
O=C(c1ccc2nc[nH]c2c1)N1CCN(C(c2ccccc2)c2ccccc2)CC1 [Compound C296, benzimidazol-5-yl 4-(diphenylmethyl)piperazinyl ketone] | 0.1 to 0.5 µM
COc1cccc(S(=O)(=O)N2CCN(C(=O)/C=C/c3ccc(F)cc3)CC2)c1 [Compound C314, (2E)-3-(4-fluorophenyl)-1-{4-[(3-methoxyphenyl)sulfonyl]piperazinyl}prop-2-en-1-one] | < 0.1 µM
O=C(c1cc2cc(C(F)(F)F)ccc2[nH]1)N1CCN(Cc2cc(F)cc(F)c2)CC1 [Compound C251, 4-[(3,5-difluorophenyl)methyl]piperazinyl 5-(trifluoromethyl)indol-2-yl ketone] | < 0.1 µM
COc1ccc(/C=C/C(=O)N2CCN(S(=O)(=O)c3ccc(C(C)(C)C)cc3)CC2)cc1 [Compound C385, (2E)-1-(4-{[4-(tert-butyl)phenyl]sulfonyl}piperazinyl)-3-(4-methoxyphenyl)prop-2-en-1-one] | < 0.1 µM
3-(4-bromophenyl)-1-{4-[(4-bromophenyl)methyl]piperazinyl}prop-2-yn-1-one [Compound C364] | < 0.1 µM
O=C(c1cnc2ccccc2c1)N1CCN(Cc2ccc(Cl)cc2)CC1 [Compound C175, 4-[(4-chlorophenyl)methyl]piperazinyl 3-quinolyl ketone] | 0.5 to 5 µM
O=C(c1cc2cc(Cl)ccc2[nH]1)N1CCC(Oc2ccc(C(F)(F)F)cc2)CC1 [Compound C390, 5-chloroindol-2-yl 4-[4-(trifluoromethyl)phenoxy]piperidyl ketone] | 0.1 to 0.5 µM
O=C(C=Cc1ccc2c(c1)OCO2)N1CCN(Cc2ccc(Cl)cc2)CC1 [Compound C297, 3-(2H-benzo[3,4-d]1,3-dioxolan-5-yl)-1-{4-[(4-chlorophenyl)methyl]piperazinyl}prop-2-en-1-one] | 0.1 to 0.5 µM
O=C(NC1CCN(C(=O)c2cc3cc(Cl)ccc3[nH]2)CC1)c1ccc(Cl)cc1 [Compound C184, N-{1-[(5-chloroindol-2-yl)carbonyl](4-piperidyl)}(4-chlorophenyl)carboxamide] | 0.5 to 5 µM
O=C(Nc1ccc(F)cc1F)N1CCN(C(=O)c2cc3cc(Cl)ccc3[nH]2)CC1 [Compound C477, N-(2,4-difluorophenyl){4-[(5-chloroindol-2-yl)carbonyl]piperazinyl}carboxamide] | 0.1 to 0.5 µM
5-methylindol-2-yl 4-(3-pyridylmethyl)piperazinyl ketone [Compound C458] | 0.1 to 0.5 µM
4-(diphenylmethyl)piperazinyl 8-fluoro(3-quinolyl) ketone [Compound C386] | < 0.1 µM

Second part, the compound after the results:

IC50 | Compound
< 0.1 µM | S=C(c1cnc2ccccc2c1)N1CCN(C(c2ccccc2)c2ccccc2)CC1 [Compound C311, [4-(diphenylmethyl)piperazinyl]-3-quinolylmethane-1-thione]
< 0.1 µM | CCN(CC)c1ccc(C(=O)N2CCN(C(=O)c3cc4cc(Cl)ccc4[nH]3)CC2)cc1 [Compound C232, 4-{[4-(diethylamino)phenyl]carbonyl}piperazinyl 5-chloroindol-2-yl ketone]
< 0.1 µM | O=C(C#Cc1ccccc1)N1CCN(C(c2ccccc2)c2ccccc2)CC1 [Compound C139, 1-[4-(diphenylmethyl)piperazinyl]-3-phenylprop-2-yn-1-one]
< 0.1 µM | O=C(c1cc2ccc(Cl)cc2s1)N1CCN(C(c2ccccc2)c2ccccc2)CC1 [Compound C45, 4-(diphenylmethyl)piperazinyl 6-chlorobenzo[b]thiophen-2-yl ketone]
< 0.1 µM | O=C(NCC1CCN(C(=O)/C=C/c2ccc(Br)cc2)CC1)c1ccc(C(F)(F)F)cc1 [Compound F3, (E)-N-((1-(3-(4-bromophenyl)acryloyl)piperidin-4-yl)methyl)-4-(trifluoromethyl)benzamide]
< 0.1 µM | Cc1ccc(C#CC(=O)N2CCN(C(=O)c3ccc(F)cc3C(F)(F)F)CC2)cc1 [Compound C224, 1-(4-{[4-fluoro-2-(trifluoromethyl)phenyl]carbonyl}piperazinyl)-3-(4-methylphenyl)prop-2-yn-1-one]
< 0.1 µM | N#Cc1ccc(C(=O)N2CCN(C(=O)c3cc4cc(C(F)(F)F)ccc4[nH]3)CC2)cc1 [Compound C102, 4-[(4-{[5-(trifluoromethyl)indol-2-yl]carbonyl}piperazinyl)carbonyl]benzenecarbonitrile]
< 0.1 µM | O=C(c1cc2cc(Cl)ccc2[nH]1)N1CCN(Cc2ccc(C(F)(F)F)c(F)c2)CC1 [Compound C402, 5-chloroindol-2-yl 4-{[3-fluoro-4-(trifluoromethyl)phenyl]methyl}piperazinyl ketone]
0.5 to 5 µM | Cc1c(C(=O)N2CCN(C(c3ccccc3)c3ccccc3)CC2)sc2ccccc12 [Compound C185, 4-(diphenylmethyl)piperazinyl 3-methylbenzo[b]thiophen-2-yl ketone]
< 0.1 µM | O=C(C#Cc1ccc2c(c1)OCO2)N1CCN(C(=O)c2ccc(Cl)cc2)CC1 [Compound C114, 3-(2H-benzo[3,4-d]1,3-dioxolen-5-yl)-1-{4-[(4-chlorophenyl)carbonyl]piperazinyl}prop-2-yn-1-one]
< 0.1 µM | O=C(/C=C/c1ccc(F)cc1)N1CCN(S(=O)(=O)CCc2ccccc2)CC1 [Compound E3, (2E)-3-(4-fluorophenyl)-1-{4-[(2-phenylethyl)sulfonyl]piperazinyl}prop-2-en-1-one]
< 0.1 µM | COc1ccc2[nH]c(C(=O)N3CCN(C(c4ccccc4)c4ccccc4)CC3)cc2c1 [Compound C97, 4-(diphenylmethyl)piperazinyl 5-methoxyindol-2-yl ketone]
< 0.1 µM | O=C(c1cc2ccccc2o1)N1CCN(C(c2ccccc2)c2ccccc2)CC1 [Compound C87, benzo[d]furan-2-yl 4-(diphenylmethyl)piperazinyl ketone]
0.1 to 0.5 µM | 3-(3,5-difluorophenyl)-1-{4-[(4-fluorophenyl)carbonyl]piperazinyl}prop-2-yn-1-one [Compound C410]
< 0.1 µM | 4-(diphenylmethyl)piperazinyl 5-hydroxyindol-2-yl ketone [Compound C348]
